Values joined by “and” are separate entries in the source; they are usually repeats but may differ in a detail not shown here. Equal values may be shown once. Toxic doses and inconclusive results are not listed. Rule as the data show it: active = T/C of 150% or more; inactive = T/C below 125%.
Tested on: L1210 leukemia ip in BDF1 mice, survival T/C
Test: NCI In Vivo Anticancer Drug Screen. Data for tumor model L1210 Leukemia (intraperitoneal) in B6D2F1 (BDF1) mice
Conditions: endpoint: mean survival time, higher = longer survival
Outline: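 Transplantable tumor model; survival measured in treated vs vehicle control mice. Value = treated/control.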

[1] = dose: 100.0 mg/kg/injection, schedule: Q04DX003 (ip), vehicle: saline with Tween-80
[2] = dose: 200.0 mg/kg/injection, schedule: Q04DX003 (ip), vehicle: saline with Tween-80
[3] = dose: 400.0 mg/kg/injection, schedule: Q04DX003 (ip), vehicle: saline with Tween-80
[4] = dose: 100.0 mg/kg/injection, schedule: Q01DX001 (ip), vehicle: Klucel (hydroxypropylcellulose) (HPC)
[5] = dose: 200.0 mg/kg/injection, schedule: Q01DX001 (ip), vehicle: Klucel (hydroxypropylcellulose) (HPC)
[6] = dose: 400.0 mg/kg/injection, schedule: Q01DX001 (ip), vehicle: Klucel (hydroxypropylcellulose) (HPC)
[7] = dose: 100.0 mg/kg/injection, schedule: Q01DX001 (ip), vehicle: saline
[8] = dose: 200.0 mg/kg/injection, schedule: Q01DX001 (ip), vehicle: saline
[9] = dose: 100.0 mg/kg/injection, schedule: Q01DX009 (ip), vehicle: Klucel (hydroxypropylcellulose) (HPC)
[10] = dose: 100.0 mg/kg/injection, schedule: Q04DX003 (ip), vehicle: Klucel (hydroxypropylcellulose) (HPC)
[11] = dose: 200.0 mg/kg/injection, schedule: Q01DX009 (ip), vehicle: Klucel (hydroxypropylcellulose) (HPC)
[12] = dose: 200.0 mg/kg/injection, schedule: Q04DX003 (ip), vehicle: Klucel (hydroxypropylcellulose) (HPC)
[13] = dose: 400.0 mg/kg/injection, schedule: Q01DX009 (ip), vehicle: Klucel (hydroxypropylcellulose) (HPC)
[14] = dose: 400.0 mg/kg/injection, schedule: Q04DX003 (ip), vehicle: Klucel (hydroxypropylcellulose) (HPC)
[15] = dose: 100.0 mg/kg/injection, schedule: Q01DX009 (ip), vehicle: saline with Tween-80
[16] = dose: 200.0 mg/kg/injection, schedule: Q01DX009 (ip), vehicle: saline with Tween-80
[17] = dose: 400.0 mg/kg/injection, schedule: Q01DX009 (ip), vehicle: saline with Tween-80

Measured: T/C

O=C(NSNc1ccccc1)c1ccccc1
inactive: dose: 100.0 mg/kg/injection, schedule: Q04DX002 (ip), vehicle: Klucel (hydroxypropylcellulose) (HPC) 110 % of control | dose: 200.0 mg/kg/injection, schedule: Q04DX002 (ip), vehicle: Klucel (hydroxypropylcellulose) (HPC) 103 % of control | dose: 400.0 mg/kg/injection, schedule: Q04DX002 (ip), vehicle: Klucel (hydroxypropylcellulose) (HPC) 100 % of control

O=C(CCl)Nc1cc(Cl)c(Cl)cc1Cl
inactive: [1] 97 % of control | [2] 97 % of control | [3] 106 % of control

CCOc1ccc(-n2c(O)c(N=Nc3ccccc3C)c(=O)n(-c3ccc(OC)cc3)c2=S)cc1
inactive: [4] 94 % of control | [5] 95 % of control | [6] 89 % of control

CN(C)Cc1ccccc1CO
inactive: dose: 75.0 mg/kg/injection, schedule: Q04DX002 (ip), vehicle: Klucel (hydroxypropylcellulose) (HPC) 101 % of control | dose: 150.0 mg/kg/injection, schedule: Q04DX002 (ip), vehicle: Klucel (hydroxypropylcellulose) (HPC) 90 % of control | dose: 300.0 mg/kg/injection, schedule: Q04DX002 (ip), vehicle: Klucel (hydroxypropylcellulose) (HPC) 97 % of control

N#C/C(N)=C(\C#N)N=Cc1ccc(-c2ccccc2)cc1
inactive: dose: 100.0 mg/kg/injection, schedule: Q01DX001 (ip), vehicle: saline with Tween-80 97 % of control | dose: 200.0 mg/kg/injection, schedule: Q01DX001 (ip), vehicle: saline with Tween-80 92 % of control | dose: 400.0 mg/kg/injection, schedule: Q01DX001 (ip), vehicle: saline with Tween-80 93 % of control

Brc1cccc(CCOCc2ccccc2)c1
inactive: dose: 100.0 mg/kg/injection, schedule: Q04DX002 (ip), vehicle: saline with Tween-80 103 % of control | dose: 200.0 mg/kg/injection, schedule: Q04DX002 (ip), vehicle: saline with Tween-80 100 % of control | dose: 400.0 mg/kg/injection, schedule: Q04DX002 (ip), vehicle: saline with Tween-80 97 % of control

CCOC(=O)c1[nH]c(C)c(/C(=N/NC(N)=O)C(=O)OC)c1C
inactive: [4] 103 % of control | [5] 110 % of control | [6] 98 % of control

CCCCCCNC1=C(C)C(=O)C(NCCCCCC)=C(C)C1=O
inactive: [7] 104 % of control | [8] 104 % of control | dose: 400.0 mg/kg/injection, schedule: Q01DX001 (ip), vehicle: saline 93 % of control

CC(=O)CC(=O)NCCCc1ccccc1
inactive: dose: 100.0 mg/kg/injection, schedule: Q01DX009 (sc), vehicle: olive oil, sesame oil, peanut oil 101 % of control | [1] 97 % of control | dose: 200.0 mg/kg/injection, schedule: Q01DX009 (sc), vehicle: olive oil, sesame oil, peanut oil 103 % of control | [2] 103 % of control | dose: 400.0 mg/kg/injection, schedule: Q01DX009 (sc), vehicle: olive oil, sesame oil, peanut oil 106 % of control | [3] 97 % of control

Clc1ccc(/C=C2\c3cc(Cl)ccc3-c3c(Cl)cc(Cl)cc32)cc1
inactive: [4] 91 % of control | [9] 91 % of control | [10] 86 % of control | [5] 93 % of control | [11] 90 % of control | [12] 91 % of control | [6] 95 % of control | [13] 86 % of control | [14] 93 % of control

CC12CC3CC(C)(C1)CC(CN=C(N)CCl)(C3)C2
inactive: dose: 6.25 mg/kg/injection, schedule: Q01DX009 (ip), vehicle: Klucel (hydroxypropylcellulose) (HPC) 106 % of control | dose: 12.5 mg/kg/injection, schedule: Q01DX009 (ip), vehicle: Klucel (hydroxypropylcellulose) (HPC) 100 % of control | dose: 12.5 mg/kg/injection, schedule: Q04DX002 (ip), vehicle: Klucel (hydroxypropylcellulose) (HPC) 96 % of control | dose: 25.0 mg/kg/injection, schedule: Q04DX002 (ip), vehicle: Klucel (hydroxypropylcellulose) (HPC) 96 % of control

CCCCCCCCCCCCCCCCCC(=O)N/N=C\c1c(O)ccc2ccccc12
inactive: [9] 93 % of control and 90 % of control | [11] 88 % of control | [13] 89 % of control

CC1CCC2(O)C3(C)CC4(O)OC2(C1O)C1(O)C3(O)C(OC(=O)c2ccc[nH]2)C(O)(C(C)C)C41C (configuration not stated)
inactive: dose: 0.25 mg/kg/injection, schedule: Q01DX001 (ip), vehicle: carboxymethylcellulose (CMC) 93 % of control

CCCCOC1CC2c3ccccc3C1c1cccc[n+]12 (configuration not stated)
inactive: dose: 12.5 mg/kg/injection, schedule: Q01DX009 (ip), vehicle: saline 111 % of control and 102 % of control | dose: 12.5 mg/kg/injection, schedule: Q04DX003 (ip), vehicle: saline 94 % of control and 101 % of control and 100 % of control | dose: 25.0 mg/kg/injection, schedule: Q01DX009 (ip), vehicle: saline 104 % of control and 98 % of control | dose: 25.0 mg/kg/injection, schedule: Q04DX003 (ip), vehicle: saline 100 % of control and 101 % of control | dose: 50.0 mg/kg/injection, schedule: Q04DX003 (ip), vehicle: saline 94 % of control and 88 % of control and 103 % of control

CCOC(=O)c1cc2ccccc2n1-c1ccccc1
inactive: [15] 111 % of control | [16] 104 % of control | [17] 104 % of control

COc1ccc(CN2CCCN(Cc3ccc(OC)cc3)C2c2cc(Br)c(OC)c(OC)c2)cc1
inactive: dose: 100.0 mg/kg/injection, schedule: Q01DX001 (ip), vehicle: acetone 94 % of control | dose: 200.0 mg/kg/injection, schedule: Q01DX001 (ip), vehicle: acetone 94 % of control | dose: 400.0 mg/kg/injection, schedule: Q01DX001 (ip), vehicle: acetone 94 % of control

CC1=CC(=Nc2ccc(N(CCCl)CCCl)cc2)C=CC1=O
inactive: dose: 50.0 mg/kg/injection, schedule: Q01DX009 (ip), vehicle: Klucel (hydroxypropylcellulose) (HPC) 110 % of control

CS(=O)(=O)OCCCS(=O)(=O)O
inactive: [7] 102 % of control

CCN1N=Nc2cccc3cccc1c23
inactive: dose: 100.0 mg/kg/injection, schedule: Q04DX003 (ip), vehicle: acetone 99 % of control | dose: 200.0 mg/kg/injection, schedule: Q04DX003 (ip), vehicle: acetone 100 % of control

N#Cc1ccc[n+]([O-])c1
inactive: [1] 100 % of control | [2] 101 % of control | [3] 97 % of control

COC1OC2COc3ccccc3OC2C(N=Cc2ccccc2)C1O (configuration not stated)
inactive: [1] 102 % of control | [2] 102 % of control | [3] 98 % of control

CC(CN)NCc1ccccc1 (configuration not stated)
inactive: dose: 100.0 mg/kg/injection, schedule: Q01DX009 (ip), vehicle: saline 96 % of control | dose: 100.0 mg/kg/injection, schedule: Q04DX003 (ip), vehicle: saline 103 % of control | dose: 200.0 mg/kg/injection, schedule: Q01DX009 (ip), vehicle: saline 94 % of control | dose: 200.0 mg/kg/injection, schedule: Q04DX003 (ip), vehicle: saline 103 % of control | dose: 400.0 mg/kg/injection, schedule: Q04DX003 (ip), vehicle: saline 95 % of control

NC(=O)C1=CN(CCc2ccccc2)c2ccccc2C1S(=O)(=O)O (configuration not stated)
inactive: dose: 75.0 mg/kg/injection, schedule: Q01DX001 (ip), vehicle: other 98 % of control | dose: 150.0 mg/kg/injection, schedule: Q01DX001 (ip), vehicle: other 94 % of control | dose: 300.0 mg/kg/injection, schedule: Q01DX001 (ip), vehicle: other 96 % of control

O=C(Nc1ccc(C(Cl)(Cl)Cl)cc1)Nc1cc(Cl)ccc1Cl
inactive: dose: 25.0 mg/kg/injection, schedule: Q01DX009 (ip), vehicle: other 109 % of control | dose: 50.0 mg/kg/injection, schedule: Q01DX009 (ip), vehicle: other 93 % of control | [9] 93 % of control | dose: 100.0 mg/kg/injection, schedule: Q01DX009 (ip), vehicle: other 95 % of control

Cn1nc(NC(=O)C(F)(F)F)c2ncc(-c3ccc(Cl)cc3)nc21
inactive: [15] 102 % of control | [1] 100 % of control | [16] 97 % of control | [2] 87 % of control | [17] 97 % of control | [3] 96 % of control

C=C1CC2(CCCC3(CC(=C)C(=O)O3)C2(C)C)OC1=O (configuration not stated)
inactive: [7] 102 % of control | [8] 119 % of control

COC1OC(C)C(NC(C)=O)C(OCc2ccccc2)C1OCc1ccccc1 (configuration not stated)
inactive: [10] 95 % of control | [12] 95 % of control | [14] 97 % of control

CCOc1ccc(/C=C2\N=C(c3ccccc3)OC2=O)cc1OC
inactive: [9] 109 % of control | [11] 105 % of control | [13] 102 % of control

OCCNc1ccc(I)cc1
inactive: [15] 90 % of control | [16] 92 % of control | [17] 87 % of control

From PubChem BioAssay AID248 (DTP/NCI, 2004)
